For assay [1], the target named is T1, MKNK1 (Homo sapiens, UniProt Q9BUB5, T385D).
T1 construct: GST (N); purchased Carna Biosciences 02-145; host or cells: insect cells (baculovirus expression system)
The assay can be described thus: MKNK1 kinase assay (MKNK1 TR-FRET assay). The format is biochemical. The settings on record: 10 μM ATP, 15 min preincubation.

Assay [2] has as its target T1, MKNK1. The assay can be described thus: MKNK1 kinase high ATP assay (TR-FRET-based). The format is biochemical. The settings on record: 2 mM ATP, 15 min preincubation. An outline of the steps: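 GST-tagged full-length human MKNK1 (aa 1-424, T344D) from insect cells, preincubated with compound 15 min at 22 °C. Reaction 30 min at 22 °C with 2 mM ATP and 0.06 μM biotinylated peptide in HEPES pH 7.5, Mg2+, DTT. Phosphopeptide detected by TR-FRET (665/622 ratio) with anti-pS6 (pSer236) antibody; normalised to no-inhibitor and no-enzyme controls.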
(In TR-FRET formats the signal depends on donor and acceptor labels being close together.)

This passage reports IC50 results from patent US20160287589A1, “SUBSTITUTED-IMIDAZOPYRIDAZINES” (BAYER PHARMA AKTIENGESELLSCHAFT, priority 2013, published 2016).

What is called IC50 is the midpoint of a concentration-inhibition curve.

T1 sequence (Q9BUB5 1-424 isoform Q9BUB5-2 T344D): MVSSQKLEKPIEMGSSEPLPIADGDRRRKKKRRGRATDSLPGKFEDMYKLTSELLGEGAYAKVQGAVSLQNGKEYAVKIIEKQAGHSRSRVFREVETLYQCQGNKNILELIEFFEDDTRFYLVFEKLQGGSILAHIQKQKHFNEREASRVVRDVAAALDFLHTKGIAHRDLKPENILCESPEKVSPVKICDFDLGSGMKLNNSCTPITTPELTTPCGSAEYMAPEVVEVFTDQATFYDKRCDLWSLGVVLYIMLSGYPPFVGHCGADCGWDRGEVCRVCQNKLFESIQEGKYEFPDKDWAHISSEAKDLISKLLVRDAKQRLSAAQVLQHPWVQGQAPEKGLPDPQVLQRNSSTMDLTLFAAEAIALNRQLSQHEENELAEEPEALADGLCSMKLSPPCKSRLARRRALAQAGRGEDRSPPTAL

`C[C@H]1CNCCN1c1cccc2oc(-c3cnc4ccc(OCC(F)(F)F)nn34)cc12` [II-29, 3-{4-[(2S)-2-methylpiperazin-1-yl]-1-benzofuran-2-yl}-6-(2,2,2-trifluoroethoxy)im-idazo[1,2-b]pyridazine]: the half-maximal inhibitory concentration (IC50) in assay [1] (Table 1b) amounted to 5.4 nM; in assay [2] (Table 2b), 2.7 nM.
As for `C[C@H](N)COc1ccc2ncc(-c3cc4c(N(C)CCCN5CCCC5)nccc4o3)n2n1` [III-12, 2-(6-{[(2S)-2-Aminopropyl]oxy}imidazo[1,2-b]pyridazin-3-yl)-N-methyl-N-[3-(pyrrolidin-1-yl)propyl]furo[3,2-c]pyridin-4-amine], the results for the IC50 in assay [1] (Table 1c) and in assay [2] (Table 2c) were 8.6 nM and 43.1 nM, respectively.
The corresponding values for `C[C@H](N)COc1ccc2ncc(-c3cc4c(N5CCN(C(=O)OC(C)(C)C)CC5)nccc4o3)n2n1` [III-15, tert-Butyl 4-[2-(6-{[(2S)-2-aminopropyl]oxy}imidazo[1,2-b]pyridazin-3-yl)furo[3,2-c]pyridin-4-yl]piperazine-1-carboxylate] are 31 nM and 78.4 nM.
In the same order, the values of `C[C@H](N)COc1ccc2ncc(-c3cc4c(N5CCO[C@H](C)C5)nccc4o3)n2n1` [III-117, (2S)-1-[(3-{4-[(2R)-2-methylmorpholin-4-yl]furo[3,2-c]pyridin-2-yl}imidazo[1,2-b]pyridazin-6-yl)oxy]propan-2-amine] are 21.5 nM and 39.9 nM.
In the same order, the values of `CCN(CCOC(C)(C)C)c1nccc2oc(-c3cnc4ccc(OC[C@@H]5COCCN5)nn34)cc12` [III-39, N-(2-tert-Butoxyethyl)-N-ethyl-2-{6-[(3S)-morpholin-3-ylmethoxy]imidazo-[1,2-b]pyridazin-3-yl}furo[3,2-c]pyridin-4-amine] are 0.9 nM and 0.5 nM.
As for `COc1ccc2ncc(-c3cc4c(N5CCN(c6ccccc6)CC5)nccc4o3)n2n1` [III-91, 6-Methoxy-3-[4-(4-phenylpiperazin-1-yl)furo[3,2-c]pyridin-2-yl]imidazo[1,2-b]pyridazine], the half-inhibitory concentration (IC50) in assay [1] (Table 1c) is 8.4 nM; in assay [2] (Table 2c) it was 18.3 nM.
In the same order, the values of `C[C@H](N)COc1ccc2ncc(-c3cc4c(N5C[C@@H](C)O[C@@H](C)C5)nccc4o3)n2n1` [III-19, (2S)-1-[(3-{4-[(2R,6S)-2,6-Dimethylmorpholin-4-yl]furo[3,2-c]pyridin-2-yl}imidazo[1,2-b]pyridazin-6-yl)oxy]propan-2-amine] are 12.2 nM and 42.7 nM.
For the molecule `COC[C@H]1CCCN1c1nccc2oc(-c3cnc4ccc(OC[C@H](C)N)nn34)cc12` [III-24, (2S)-1-[(3-{4-[(2R)-2-(Methoxymethyl)pyrrolidin-1-yl]furo[3,2-c]pyridin-2-yl}imidazo[1,2-b]pyridazin-6-yl)oxy]propan-2-amine], the IC50 in assay [1] (Table 1c) came to 0.4 nM; in assay [2] (Table 2c), 8.6 nM.
Consider `COC[C@H]1CCCN1c1cccc2oc(-c3cnc4ccc(OC[C@@H]5CNCC(=O)N5)nn34)cc12` [II-47, (6S)-6-{[(3-{4-[(2R)-2-(methoxymethyl)pyrrolidin-1-yl]-1-benzofuran-2-yl}imidazo[1,2-b]pyridazin-6-yl)oxy]methyl}piperazin-2-one], for which the IC50 turned out to be 4.8 nM in assay [1] (Table 1b) and 0.8 nM in assay [2] (Table 2b).
Regarding `CN(C)[C@H]1CCN(c2nccc3oc(-c4cnc5ccc(OCCCS(C)(=O)=O)nn45)cc23)C1` [III-114, (3S)-N,N-dimethyl-1-(2-{6-[3-(methylsulfonyl)propoxy]imidazo[1,2-b]pyridazin-3-yl}furo[3,2-c]pyridin-4-yl)pyrrolidin-3-amine], the values for the concentration for half-maximal inhibition (IC50) in assay [1] (Table 1c) and in assay [2] (Table 2c) were 10.4 nM and 23.4 nM, respectively.
As to `C[C@@H](N)COc1ccc2ncc(-c3cc4c(N5CCOC(C)(C)C5)cccc4o3)n2n1` [II-35, (2R)-1-({3-[4-(2,2-dimethylmorpholin-4-yl)-1-benzofuran-2-yl]imidazo[1,2-b]pyridazin-6-yl}oxy)propan-2-amine], the IC50 stood at 16.7 nM in assay [1] (Table 1b) and 49.6 nM in assay [2] (Table 2b).
